Laboratory results reported in ChEMBL document CHEMBL4257522, “Synthesis and preliminary anti-inflammatory and anti-bacterial evaluation of some diflunisal aza-analogs” (Medchemcomm, 2018).
Calls of active or inactive are those of the source. The rule behind the calls is not given here.

Tests used:
Enterococcus faecium [1] = test: Potentiation of methicillin-induced antibacterial activity against Enterococcus faecium ATCC 700221 assessed as minimum modulatory concentration up to 32 uM measured after 16 hrs in presence of MIC/4 methicillin; type: functional; details: ATCC 700221, 16 h, read-out: MEC
Escherichia coli [2] = test: Potentiation of methicillin-induced antibacterial activity against Escherichia coli ATCC 43894 assessed as minimum modulatory concentration up to 32 uM measured after 16 hrs in presence of MIC/4 methicillin; type: functional; details: ATCC 43894, 16 h, read-out: MEC
Pseudomonas aeruginosa [3] = test: Potentiation of tetracycline-induced antibacterial activity against Pseudomonas aeruginosa ATCC BAA-2108 assessed as minimum modulatory concentration up to 32 uM measured after 16 hrs in presence of MIC/4 tetracycline; type: functional; details: ATCC BAA-2108, 16 h, read-out: MEC
Klebsiella pneumoniae [4] = test: Potentiation of erythromycin-induced antibacterial activity against Klebsiella pneumoniae ATCC 13883 assessed as minimum modulatory concentration up to 32 uM measured after 16 hrs in presence of MIC/4 erythromycin; type: functional; details: ATCC 13883, 16 h, read-out: MEC
Escherichia coli [5] = test: Toxicity in Escherichia coli ATCC 43894 up to 32 uM measured after 16 hrs; type: organism-based
Pseudomonas aeruginosa [6] = test: Toxicity in Pseudomonas aeruginosa ATCC BAA-2108 up to 32 uM measured after 16 hrs; type: organism-based; details: in vitro
Pseudomonas aeruginosa [7] = test: Potentiation of ciprofloxacin-induced antibacterial activity against Pseudomonas aeruginosa ATCC BAA-2108 assessed as minimum modulatory concentration up to 32 uM measured after 16 hrs in presence of MIC/4 ciprofloxacin; type: functional; details: ATCC BAA-2108, 16 h, read-out: MEC
Macrophage cell line [8] = test: Cytotoxicity against human PBMC-differentiated macrophages treated for 24 hrs followed by compound washout and measured after 48 hrs by MTT assay; type: cell-based
Staphylococcus aureus [9] = test: Potentiation of geneticin-induced antibacterial activity against Staphylococcus aureus ATCC 33592 assessed as minimum modulatory concentration up to 32 uM measured after 16 hrs in presence of MIC/4 geneticin; type: functional; details: ATCC 33592, 16 h, read-out: MEC
Macrophage cell line [10] = test: Induction of TNFalpha production in human PBMC-differentiated macrophages after 24 hrs by ELISA; type: cell-based
Macrophage cell line [11] = test: Antiinflammatory activity in human PBMC-differentiated macrophages assessed as inhibition of LPS-induced prostaglandin production at 0.01 to 10 uM measured after 24 hrs by ELISA; type: functional, cell-based
Staphylococcus aureus [12] = test: Potentiation of ciprofloxacin-induced antibacterial activity against Staphylococcus aureus ATCC 33592 assessed as minimum modulatory concentration up to 32 uM measured after 16 hrs in presence of MIC/4 ciprofloxacin; type: functional; details: ATCC 33592, 16 h, read-out: MEC
Streptococcus pyogenes [13] = test: Potentiation of ciprofloxacin-induced antibacterial activity against Streptococcus pyogenes ATCC 14289 assessed as minimum modulatory concentration up to 32 uM measured after 16 hrs in presence of MIC/4 ciprofloxacin; type: functional; details: ATCC 14289, 16 h, read-out: MEC
Klebsiella pneumoniae [14] = test: Toxicity in Klebsiella pneumoniae ATCC 13883 up to 32 uM measured after 16 hrs; type: organism-based
Streptococcus pyogenes [15] = test: Toxicity in Streptococcus pyogenes ATCC 14289 up to 32 uM measured after 16 hrs; type: organism-based
Klebsiella pneumoniae [16] = test: Potentiation of methicillin-induced antibacterial activity against Klebsiella pneumoniae ATCC 13883 assessed as minimum modulatory concentration up to 32 uM measured after 16 hrs in presence of MIC/4 methicillin; type: functional; details: ATCC 13883, 16 h, read-out: MEC
Enterococcus faecium [17] = test: Potentiation of erythromycin-induced antibacterial activity against Enterococcus faecium ATCC 700221 assessed as minimum modulatory concentration up to 32 uM measured after 16 hrs in presence of MIC/4 erythromycin; type: functional; details: ATCC 700221, 16 h, read-out: MEC
Pseudomonas aeruginosa [18] = test: Potentiation of geneticin-induced antibacterial activity against Pseudomonas aeruginosa ATCC BAA-2108 assessed as minimum modulatory concentration up to 32 uM measured after 16 hrs in presence of MIC/4 geneticin; type: functional; details: ATCC BAA-2108, 16 h, read-out: MEC
Pseudomonas aeruginosa [19] = test: Potentiation of erythromycin-induced antibacterial activity against Pseudomonas aeruginosa ATCC BAA-2108 assessed as minimum modulatory concentration up to 32 uM measured after 16 hrs in presence of MIC/4 erythromycin; type: functional; details: ATCC BAA-2108, 16 h, read-out: MEC
Staphylococcus aureus [20] = test: Potentiation of tetracycline-induced antibacterial activity against Staphylococcus aureus ATCC 33592 assessed as minimum modulatory concentration up to 32 uM measured after 16 hrs in presence of MIC/4 tetracycline; type: functional; details: ATCC 33592, 16 h, read-out: MEC
Staphylococcus aureus [21] = test: Potentiation of methicillin-induced antibacterial activity against Staphylococcus aureus ATCC 33592 assessed as minimum modulatory concentration up to 32 uM measured after 16 hrs in presence of MIC/4 methicillin; type: functional; details: ATCC 33592, 16 h, read-out: MEC
Macrophage cell line [22] = test: Antiinflammatory activity in human PBMC-differentiated macrophages assessed as inhibition of LPS-induced IL-8 production at 0.01 to 10 uM measured after 24 hrs by ELISA; type: functional, cell-based
Klebsiella pneumoniae [23] = test: Potentiation of geneticin-induced antibacterial activity against Klebsiella pneumoniae ATCC 13883 assessed as minimum modulatory concentration up to 32 uM measured after 16 hrs in presence of MIC/4 geneticin; type: functional; details: ATCC 13883, 16 h, read-out: MEC
Enterococcus faecium [24] = test: Potentiation of tetracycline-induced antibacterial activity against Enterococcus faecium ATCC 700221 assessed as minimum modulatory concentration up to 32 uM measured after 16 hrs in presence of MIC/4 tetracycline; type: functional; details: ATCC 700221, 16 h, read-out: MEC
Streptococcus pyogenes [25] = test: Potentiation of tetracycline-induced antibacterial activity against Streptococcus pyogenes ATCC 14289 assessed as minimum modulatory concentration up to 32 uM measured after 16 hrs in presence of MIC/4 tetracycline; type: functional; details: ATCC 14289, 16 h, read-out: MEC
Escherichia coli [26] = test: Potentiation of tetracycline-induced antibacterial activity against Escherichia coli ATCC 43894 assessed as minimum modulatory concentration up to 32 uM measured after 16 hrs in presence of MIC/4 tetracycline; type: functional; details: ATCC 43894, 16 h, read-out: MEC
Escherichia coli [27] = test: Potentiation of geneticin-induced antibacterial activity against Escherichia coli ATCC 43894 assessed as minimum modulatory concentration up to 32 uM measured after 16 hrs in presence of MIC/4 geneticin; type: functional; details: ATCC 43894, 16 h, read-out: MEC
Streptococcus pyogenes [28] = test: Potentiation of geneticin-induced antibacterial activity against Streptococcus pyogenes ATCC 14289 assessed as minimum modulatory concentration up to 32 uM measured after 16 hrs in presence of MIC/4 geneticin; type: functional; details: ATCC 14289, 16 h, read-out: MEC
Macrophage cell line [29] = test: Induction of prostaglandin production in human PBMC-differentiated macrophages after 24 hrs by ELISA; type: cell-based
Streptococcus pyogenes [30] = test: Potentiation of methicillin-induced antibacterial activity against Streptococcus pyogenes ATCC 14289 assessed as minimum modulatory concentration up to 32 uM measured after 16 hrs in presence of MIC/4 methicillin; type: functional; details: ATCC 14289, 16 h, read-out: MEC
Klebsiella pneumoniae [31] = test: Potentiation of ciprofloxacin-induced antibacterial activity against Klebsiella pneumoniae ATCC 13883 assessed as minimum modulatory concentration up to 32 uM measured after 16 hrs in presence of MIC/4 ciprofloxacin; type: functional; details: ATCC 13883, 16 h, read-out: MEC
Pseudomonas aeruginosa [32] = test: Potentiation of methicillin-induced antibacterial activity against Pseudomonas aeruginosa ATCC BAA-2108 assessed as minimum modulatory concentration up to 32 uM measured after 16 hrs in presence of MIC/4 methicillin; type: functional; details: ATCC BAA-2108, 16 h, read-out: MEC
Klebsiella pneumoniae [33] = test: Potentiation of tetracycline-induced antibacterial activity against Klebsiella pneumoniae ATCC 13883 assessed as minimum modulatory concentration up to 32 uM measured after 16 hrs in presence of MIC/4 tetracycline; type: functional; details: ATCC 13883, 16 h, read-out: MEC

With `COc1cccc(-c2cc(C(=O)[O-])c(O)c[n+]2C)c1` the minimal effective concentration (Enterococcus faecium [1]) was > 32 µM, the minimal effective concentration (Escherichia coli [2]) was > 32 µM and the minimal effective concentration (Pseudomonas aeruginosa [3]) was > 32 µM. The minimal effective concentration (Klebsiella pneumoniae [4]) was > 32 µM, the Activity (Escherichia coli [5]) was “Non-Toxic” and the Activity (Pseudomonas aeruginosa [6]) was “Non-Toxic”. For the same compound, the minimal effective concentration (Pseudomonas aeruginosa [7]) was > 32 µM, the IC50 (Macrophage cell line [8]) was 96 µM and the minimal effective concentration (Staphylococcus aureus [9]) was > 32 µM. The Activity (Macrophage cell line [10]) was “Non-Toxic”, the inhibition (Macrophage cell line [11]) was “inactive” and the minimal effective concentration (Staphylococcus aureus [12]) was > 32 µM. For the same compound, the minimal effective concentration (Streptococcus pyogenes [13]) was > 32 µM, the Activity (Klebsiella pneumoniae [14]) was “Non-Toxic” and the Activity (Streptococcus pyogenes [15]) was “Non-Toxic”. The minimal effective concentration (Klebsiella pneumoniae [16]) was > 32 µM, the minimal effective concentration (Enterococcus faecium [17]) was > 32 µM and the minimal effective concentration (Pseudomonas aeruginosa [18]) was > 32 µM. The minimal effective concentration (Pseudomonas aeruginosa [19]) was > 32 µM, the minimal effective concentration (Staphylococcus aureus [20]) was > 32 µM and the minimal effective concentration (Staphylococcus aureus [21]) was > 32 µM. For the same compound, the inhibition (Macrophage cell line [22]) was “inactive”, the minimal effective concentration (Klebsiella pneumoniae [23]) was > 32 µM and the minimal effective concentration (Enterococcus faecium [24]) was > 32 µM. For the same compound, the minimal effective concentration (Streptococcus pyogenes [25]) was > 32 µM, the minimal effective concentration (Escherichia coli [26]) was > 32 µM and the minimal effective concentration (Escherichia coli [27]) was > 32 µM. For the same compound, the minimal effective concentration (Streptococcus pyogenes [28]) was > 32 µM, the Activity (Macrophage cell line [29]) was “Non-Toxic” and the minimal effective concentration (Streptococcus pyogenes [30]) was > 32 µM. The minimal effective concentration (Klebsiella pneumoniae [31]) was > 32 µM, the minimal effective concentration (Pseudomonas aeruginosa [32]) was > 32 µM and the minimal effective concentration (Klebsiella pneumoniae [33]) was > 32 µM.
With `Cc1nc(-c2ccccc2)c(O)cc1C(=O)O` the minimal effective concentration (Enterococcus faecium [1]) was 0.5 µM, the minimal effective concentration (Escherichia coli [2]) was > 32 µM and the minimal effective concentration (Pseudomonas aeruginosa [3]) was > 32 µM. For the same compound, the minimal effective concentration (Klebsiella pneumoniae [4]) was > 32 µM, the Activity (Escherichia coli [5]) was “Non-Toxic” and the Activity (Pseudomonas aeruginosa [6]) was “Non-Toxic”. For the same compound, the minimal effective concentration (Pseudomonas aeruginosa [7]) was 4 µM, the IC50 (Macrophage cell line [8]) was 97.4 µM and the minimal effective concentration (Staphylococcus aureus [9]) was 4 µM. For the same compound, the Activity (Macrophage cell line [10]) was “Non-Toxic”, the inhibition (Macrophage cell line [11]) was “inactive” and the minimal effective concentration (Staphylococcus aureus [12]) was 16 µM. For the same compound, the minimal effective concentration (Streptococcus pyogenes [13]) was > 32 µM, the Activity (Klebsiella pneumoniae [14]) was “Non-Toxic” and the Activity (Streptococcus pyogenes [15]) was “Non-Toxic”. The minimal effective concentration (Klebsiella pneumoniae [16]) was > 32 µM, the minimal effective concentration (Enterococcus faecium [17]) was 4 µM and the minimal effective concentration (Pseudomonas aeruginosa [18]) was > 32 µM. For the same compound, the minimal effective concentration (Pseudomonas aeruginosa [19]) was 4 µM, the minimal effective concentration (Staphylococcus aureus [20]) was 4 µM and the minimal effective concentration (Staphylococcus aureus [21]) was 0.5 µM. The inhibition (Macrophage cell line [22]) was “inactive”, the minimal effective concentration (Klebsiella pneumoniae [23]) was > 32 µM and the minimal effective concentration (Enterococcus faecium [24]) was 1 µM. For the same compound, the minimal effective concentration (Streptococcus pyogenes [25]) was 4 µM, the minimal effective concentration (Escherichia coli [26]) was > 32 µM and the minimal effective concentration (Escherichia coli [27]) was > 32 µM. For the same compound, the minimal effective concentration (Streptococcus pyogenes [28]) was 2 µM, the Activity (Macrophage cell line [29]) was “Non-Toxic” and the minimal effective concentration (Streptococcus pyogenes [30]) was 4 µM. The minimal effective concentration (Klebsiella pneumoniae [31]) was > 32 µM, the minimal effective concentration (Pseudomonas aeruginosa [32]) was 16 µM and the minimal effective concentration (Klebsiella pneumoniae [33]) was > 32 µM.
